According to ChEMBL document CHEMBL5625249, “Optimization and antifungal activity of quinoline derivatives linked to chalcone moiety combined with FLC against Candida albicans” (Eur J Med Chem, 2023):
≈ marks a conversion by molar mass, not a printed value. Calls of active or inactive are those of the source. The rule behind the calls is not given here.

Tests used:
Candida albicans [1] = assay: Antifungal activity against clinical FLC-resistant Candida albicans 381 measured after 24 hrs by microdilution method; assay type: functional
Candida albicans [2] = assay: Antifungal activity against clinical FLC-resistant Candida albicans 3816 measured after 24 hrs by microdilution method; assay type: functional
Candida albicans [3] = assay: In vivo antifungal activity against FLC-resistant Candida albicans ATCC 14053 infected in Balb/c mouse assessed as restoration of normal kidney morphology at 2 mg/kg, ig measured after 6 days by H and E staining based histopathological analysis; assay type: functional, organism-based; details: time 6.0 day
[4] = Toxicity in Balb/c mouse assessed as death at 2 mg/kg, ig measured daily for 6 days; assay type: organism-based; details: in vivo, po, 144 h, time 6 day
Candida albicans [5] = assay: Antifungal activity against FLC-resistant Candida albicans ATCC 14053 assessed as inhibition of hyphal formation by measuring down regulation of RAS1 gene expression at 8 ug/ml measured after 16 to 18 hrs by qRT-PCR analysis; assay type: functional, organism-based; details: dose 8.0 µg/ml, time 16-18 hrs
Candida albicans [6] = assay: In vivo antifungal activity against FLC-resistant Candida albicans ATCC 14053 infected in Balb/c mouse assessed as increase in organ coefficients of thymus at 2 mg/kg, ig measured after 6 days; assay type: functional, organism-based; details: time 6.0 day
Candida albicans [7] = assay: Antifungal activity against clinical FLC-resistant Candida albicans 602 measured after 24 hrs by microdilution method; assay type: functional
Candida albicans [8] = assay: In vivo antifungal activity against FLC-resistant Candida albicans ATCC 14053 infected in Balb/c mouse assessed as restoration of normal glomeruli morphology at 2 mg/kg, ig measured after 6 days by H and E staining based histopathological analysis; assay type: functional, organism-based; details: time 6.0 day
Candida albicans [9] = assay: Antifungal activity against FLC-sensitive Candida albicans SC5314 measured after 24 hrs by microdilution method; assay type: functional
Candida albicans [10] = assay: Antifungal activity against Clinical FLC-resistant Candida albicans 23 measured after 24 hrs by microdilution method; assay type: functional
Candida albicans [11] = assay: Antifungal activity against clinical FLC-resistant Candida albicans 4574 measured after 24 hrs by microdilution method; assay type: functional
Candida albicans [12] = assay: Antifungal activity against FLC-resistant Candida albicans ATCC 10231 measured after 24 hrs by microdilution method; assay type: functional
Candida albicans [13] = assay: Induction of mitochondrial membrane potential loss in FLC-resistant Candida albicans ATCC 14053 at 1 ug/mL measured after 16 to 18 hrs by JC-1 staining based fluorescence assay; assay type: functional, organism-based; details: dose 1.0 µg/ml, time 16-18 hrs
Candida albicans [14] = assay: Antifungal activity against clinical FLC-resistant Candida albicans 808 measured after 24 hrs by microdilution method; assay type: functional
Candida albicans [15] = assay: Antifungal activity against clinical FLC-resistant Candida albicans 550 measured after 24 hrs by microdilution method; assay type: functional
Candida albicans [16] = assay: Antifungal activity against clinical FLC-resistant Candida albicans 4508 measured after 24 hrs by microdilution method; assay type: functional
Candida albicans [17] = assay: Induction of reactive oxygen species production in FLC-resistant Candida albicans ATCC 14053 at 1 ug/mL measured after 16 to 18 hrs by DCFH-DA staining based fluorescence assay; assay type: functional, organism-based; details: dose 1.0 µg/ml, time 16-18 hrs
Candida albicans [18] = assay: In vivo antifungal activity against FLC-resistant Candida albicans ATCC 14053 infected in Balb/c mouse assessed as reduction in kidney fungal load at 2 mg/kg, ig measured after 6 days; assay type: functional, organism-based; details: time 6.0 day
Candida albicans [19] = assay: Antifungal activity against FLC-resistant Candida albicans ATCC 14053 cultured in spider medium assessed as inhibition of hyphal formation at 1 ug/ml measured after 2 hrs by inverted microscopy; assay type: functional, organism-based; details: dose 1.0 µg/ml
Candida albicans [20] = assay: In vivo antifungal activity against FLC-resistant Candida albicans ATCC 14053 infected in Balb/c mouse assessed as reduction in infiltration of inflammatory cells at 2 mg/kg, ig measured after 6 days by H and E staining based histopathological analysis; assay type: functional, organism-based; details: time 6.0 day
Candida albicans [21] = assay: Antifungal activity against FLC-resistant Candida albicans ATCC 14053 cultured in SD +10% FBS liquid medium assessed as inhibition of hyphal formation at 1 ug/ml measured after 2 hrs by inverted microscopy; assay type: functional, organism-based; details: dose 1.0 µg/ml
Candida albicans [22] = assay: Antifungal activity against FLC-resistant Candida albicans ATCC 14053 assessed as inhibition of hyphal formation by measuring down regulation of ECE1 gene expression at 8 ug/ml measured after 16 to 18 hrs by qRT-PCR analysis; assay type: functional, organism-based; details: dose 8.0 µg/ml, time 16-18 hrs
[23] = Toxicity in Balb/c mouse assessed as weight loss at 2 mg/kg, ig measured daily for 6 days; assay type: organism-based; details: in vivo, po, 144 h, time 6 day
Candida albicans [24] = assay: Antifungal activity against clinical FLC-resistant Candida albicans 187 measured after 24 hrs by microdilution method; assay type: functional
Candida albicans [25] = assay: In vivo antifungal activity against FLC-resistant Candida albicans ATCC 14053 infected in Balb/c mouse assessed as restoration of normal lung morphology at 2 mg/kg, ig measured after 6 days by H and E staining based histopathological analysis; assay type: functional, organism-based; details: time 6.0 day
Candida albicans [26] = assay: In vivo antifungal activity against FLC-resistant Candida albicans ATCC 14053 infected in Balb/c mouse assessed as reduction in severity of lesions in kidney at 2 mg/kg, ig measured after 6 days by H and E staining based histopathological analysis; assay type: functional, organism-based; details: time 6.0 day
Candida albicans [27] = assay: In vivo antifungal activity against FLC-resistant Candida albicans ATCC 14053 infected in Balb/c mouse assessed as increase in organ coefficients of spleen at 2 mg/kg, ig measured after 6 days; assay type: functional, organism-based; details: time 6.0 day
Candida albicans [28] = assay: Antifungal activity against clinical FLC-resistant Candida albicans 799 measured after 24 hrs by microdilution method; assay type: functional
Candida albicans [29] = assay: In vivo antifungal activity against FLC-resistant Candida albicans ATCC 14053 infected in Balb/c mouse assessed as removal of colonized fungi at 2 mg/kg, ig measured after 6 days by H and E staining based histopathological analysis; assay type: functional, organism-based; details: time 6.0 day
Candida albicans [30] = assay: In vivo antifungal activity against FLC-resistant Candida albicans ATCC 14053 infected in Balb/c mouse assessed as reduction in renal injury at 2 mg/kg, ig measured after 6 days by H and E staining based histopathological analysis; assay type: functional, organism-based; details: time 6.0 day
Candida albicans [31] = assay: Antifungal activity against FLC-resistant Candida albicans ATCC 14053 at 1 ug/mL measured over 48 hrs by time-killing assay; assay type: functional, organism-based; details: dose 1.0 µg/ml
Candida albicans [32] = assay: In vivo antifungal activity against FLC-resistant Candida albicans ATCC 14053 infected in Balb/c mouse assessed as reduction in lung fungal load at 2 mg/kg, ig measured after 6 days; assay type: functional, organism-based; details: time 6.0 day
Candida albicans [33] = assay: In vivo antifungal activity against FLC-resistant Candida albicans ATCC 14053 infected in Balb/c mouse assessed as reduction in severity of lesions in lungs at 2 mg/kg, ig measured after 6 days by H and E staining based histopathological analysis; assay type: functional, organism-based; details: time 6.0 day
Candida albicans [34] = assay: Antifungal activity against FLC-resistant Candida albicans ATCC 14053 assessed as reduction in intracellular ATP level at 1 ug/ml measured after 16 to 18 hrs by luminescence assay; assay type: functional, organism-based; details: dose 1.0 µg/ml, time 16-18 hrs
Candida albicans [35] = assay: Antifungal activity against FLC-resistant Candida albicans ATCC 14053 assessed as inhibition of hyphal formation by measuring down regulation of EFG1 gene expression at 8 ug/ml measured after 16 to 18 hrs by qRT-PCR analysis; assay type: functional, organism-based; details: dose 8.0 µg/ml, time 16-18 hrs
Candida albicans [36] = assay: Antifungal activity against FLC-resistant Candida albicans ATCC 14053 assessed as inhibition of hyphal formation by measuring down regulation of ALS3 gene expression at 8 ug/ml measured after 16 to 18 hrs by qRT-PCR analysis; assay type: functional, organism-based; details: dose 8.0 µg/ml, time 16-18 hrs
[37] = Toxicity in Balb/c mouse infected with FLC-resistant Candida albicans ATCC 14053 assessed as weight loss at 2 mg/kg, ig measured daily for 6 days; assay type: organism-based; details: in vivo, po, 144 h, time 6 day
Candida albicans [38] = assay: In vivo antifungal activity against FLC-resistant Candida albicans ATCC 14053 infected in Balb/c mouse assessed as survival rate at 2 mg/kg, ig measured daily for 6 days (Rvb < 20%); assay type: functional; details: ATCC 14053, po, 144 h, time 6 day
Candida albicans [39] = assay: Antifungal activity against FLC-resistant Candida albicans ATCC 14053 assessed as inhibition of hyphal formation by measuring down regulation of CYR1 gene expression at 8 ug/ml measured after 16 to 18 hrs by qRT-PCR analysis; assay type: functional, organism-based; details: dose 8.0 µg/ml, time 16-18 hrs
Candida albicans [40] = assay: Antifungal activity against FLC-resistant Candida albicans ATCC 14053 assessed as inhibition of hyphal formation by measuring down regulation of HWP1 gene expression at 8 ug/ml measured after 16 to 18 hrs by qRT-PCR analysis; assay type: functional, organism-based; details: dose 8.0 µg/ml, time 16-18 hrs
Candida albicans [41] = assay: Antifungal activity against clinical FLC-resistant Candida albicans 3511 measured after 24 hrs by microdilution method; assay type: functional
Candida albicans [42] = assay: Antifungal activity against clinical FLC-resistant Candida albicans 800 measured after 24 hrs by microdilution method; assay type: functional
Candida albicans [43] = assay: Antifungal activity against FLC-resistant Candida albicans ATCC 14053 measured after 24 hrs by microdilution method; assay type: functional
Candida albicans [44] = assay: Synergistic antifungal activity against FLC-sensitive Candida albicans SC5314 measured after 24 hrs in presence of fluconazole by microdilution method; assay type: functional
Candida albicans [45] = assay: Synergistic antifungal activity against FLC-sensitive Candida albicans SC5314 assessed as fractional inhibitory concentration index measured after 24 hrs in presence of fluconazole by microdilution method; assay type: functional
Candida albicans [46] = assay: Synergistic antifungal activity against Clinical FLC-resistant Candida albicans 23 measured after 24 hrs in presence of fluconazole by microdilution method; assay type: functional
Candida albicans [47] = assay: Synergistic antifungal activity against Clinical FLC-resistant Candida albicans 23 assessed as fractional inhibitory concentration index measured after 24 hrs in presence of fluconazole by microdilution method; assay type: functional

OC(Cn1cncn1)(Cn1cncn1)c1ccc(F)cc1F [FLUCONAZOLE]
MIC80 (Candida albicans [1]): > 40 µg/mL
MIC80 (Candida albicans [2]): > 40 µg/mL
Activity (Candida albicans [3]): inactive
Activity [4]: Non-Toxic
inhibition (Candida albicans [5]): Active
Activity (Candida albicans [6]): Active
MIC80 (Candida albicans [7]): > 40 µg/mL
Activity (Candida albicans [8]): inactive
MIC80 (Candida albicans [9]): 5.79 µg/mL (≈ 18.9 µM)
MIC80 (Candida albicans [10]): > 40 µg/mL
MIC80 (Candida albicans [11]): > 40 µg/mL
MIC80 (Candida albicans [12]): > 40 µg/mL
Activity (Candida albicans [13]): Active
MIC80 (Candida albicans [14]): > 40 µg/mL
MIC80 (Candida albicans [15]): > 40 µg/mL
MIC80 (Candida albicans [16]): > 40 µg/mL
Activity (Candida albicans [17]): Active
Activity (Candida albicans [18]): Active
inhibition (Candida albicans [19]): inactive
Activity (Candida albicans [20]): inactive
inhibition (Candida albicans [21]): inactive
inhibition (Candida albicans [22]): Active
Activity [23]: Non-Toxic
MIC80 (Candida albicans [24]): > 40 µg/mL
Activity (Candida albicans [25]): inactive
Activity (Candida albicans [26]): inactive
Activity (Candida albicans [27]): Active
MIC80 (Candida albicans [28]): > 40 µg/mL
Activity (Candida albicans [29]): inactive
Activity (Candida albicans [30]): inactive
Activity (Candida albicans [31]): Active
Activity (Candida albicans [32]): inactive
Activity (Candida albicans [33]): inactive
Activity (Candida albicans [34]): Active
inhibition (Candida albicans [35]): Active
inhibition (Candida albicans [36]): Active
Activity [37]: Toxic
survival at 2 mg/kg (Candida albicans [38]): 30%
inhibition (Candida albicans [39]): Active
inhibition (Candida albicans [40]): Active
MIC80 (Candida albicans [41]): > 40 µg/mL
MIC80 (Candida albicans [42]): > 40 µg/mL
MIC80 (Candida albicans [43]): > 40 µg/mL

CN1CCN(c2nc3ccccc3cc2/C=C/C(=O)c2ccc(N3CCN(S(=O)(=O)C4CC4)CC3)cc2)CC1
MIC80 (Candida albicans [44]): 4.93 µg/mL
fractional inhibitory concentration index (FICI) (Candida albicans [45]): 0.91
MIC80 (Candida albicans [46]): 6.03 µg/mL
MIC80 (Candida albicans [9]): > 40 µg/mL
MIC80 (Candida albicans [10]): > 40 µg/mL
fractional inhibitory concentration index (FICI) (Candida albicans [47]): 0.15

CN1CCN(c2nc3ccccc3cc2/C=C/C(=O)c2ccc(N3CCN(C(=O)c4ccc(F)cc4)CC3)cc2)CC1
MIC80 (Candida albicans [44]): 0.88 µg/mL
fractional inhibitory concentration index (FICI) (Candida albicans [45]): 0.16
MIC80 (Candida albicans [46]): 3.43 µg/mL
MIC80 (Candida albicans [9]): > 40 µg/mL
MIC80 (Candida albicans [10]): > 40 µg/mL
fractional inhibitory concentration index (FICI) (Candida albicans [47]): 0.09
